The text below walks through data of US11771697B2, “Small molecule degraders of polybromo-1 (PBRM1)” (DANA-FARBER CANCER INSTITUTE, INC., priority 2018, dated 2023).

Holding throughout (assay type): cell-based
Experiment [1] concerns the target T1, CRBN (Homo sapiens, UniProt Q96SW2).
T1 construct: Cells stably expressing BRD4BD2-GFP with mCherry reporter were seeded; endogenous in cells; host or cells: Flip-In 293 cells stably expressing BRD4BD2-eGFP-P2A-mCherry
Briefly: Cellular CRBN binding assay (BRD4BD2-GFP/mCherry reporter, competition with 100 nM dBET6). The note with it: GFP/RFP ratio, Flip-In 293 cells expressing BRD4BD2-GFP, 5 hours. Here is the method:
(§1) BRD4BD2 were subcloned into mammalian pcDNA5/FRT Vector (Ampicillin and Hygromycin B resistant) modified to contain MCS-eGFP-P2A-mCherry. Stable cell lines expressing eGFP-protein fusion and mCherry reporter were generated using the Flip-In™ 293 system. Plasmid (0.3 μg) and pOG44 (4.7 μg) DNA were preincubated in 100 of Opti-MEM I (Gibco™, Life Technologies) media containing 0.05 mg/ml Lipofectamine® 2000 (Invitrogen) for 20 minutes and added to Flip-In™ 293 cells containing 1.9 ml of DMEM media (Gibco™, Life Technologies) per well in a 6-well plate format (Falcon, 353046). Cells were propagated after 48 hours and transferred into a 10 cm^2 plate (Corning, 430165) in DMEM media containing 50 μg/ml of Hygromycin B (REF 10687010, Invitrogen) as a selection marker. Following a 2-3 passage cycle, FACS (FACSAria II, BD) was used to enrich for cells expressing eGFP and mCherry.
Cells stably expressing BRD4BD2-GFP with mCherry reporter were seeded at 30-50% confluency in 384 well plates (3764, Corning) with 50 μl FluoroBrite DMEM media (Gibco™, A18967) containing 10% FBS per well a day before compound treatment. Compounds and 100 nM dBET6 were dispensed using D300e Digital Dispenser (HP) normalized to 0.5% DMSO and incubated with cells for 5 hours. The assay plate was imaged immediately using Acumen eX3/HCl (TTPLabtech) High Content Imager with 488 nm and 561 nm lasers in […] grid per well format. The resulting images were analyzed using CellProfiler (Carpenter, et al., Genome Biol. 7:R100 PIMD 17076895 (2006)).

Experiment [2] deals with T2, PBRM1 (Homo sapiens, UniProt Q86U86).
T2 construct: near complete degradation of endogenous PBRM1; endogenous in cells; host or cells: Kelly cells
Briefly: Kelly cell PBRM1 Western blot for cellular degradation of proteins. As to conditions: Kelly cells; relative to GAPDH, compared to DMSO. Here is the method: Kelly cells were treated with compounds as indicated and incubated for 6 or 24 hours. Samples were run on 4-20% or Any kD™ SDS-PAGE Gels (Bio-Rad), and transferred to PVDF membranes using the iBlot 2.0 dry blotting system (Thermo-Fisher Scientific). Membranes were blocked with LI-COR blocking solution (LI-COR), and incubated with primary antibodies overnight, followed by three washes in LI-COR blocking solution and incubation with secondary antibodies for one hour in the dark. After three final washes, the membranes were imaged on a LI-COR fluorescent imaging station (LI-COR). Antibodies used: anti-PBRM1 at 1:500 dilution (Cell Signaling, clone D3F70), anti-GAPDH at 1:10,000 dilution (G8795, Sigma), IRDye 680 Donkey anti-mouse at 1:10,000 dilution (926-68072, LI-COR).

The target of experiment [3] is T3, PBRM1 PB5 (Homo sapiens, UniProt Q86U86). Briefly: PBRM1 PB5 GFP/RFP degradation assay (flow cytometry reporter assay). As to conditions: 5 hours, FIG. 3A-3F. Here is the method: as §1, with “PBRM1 PB5 was” for “BRD4BD2 were”, “[…])” for “μg)”, “Lipofectamine” for “Lipofectamine®”
Cells were seeded at 30-50% confluency in either 24, 48 or 96 well plates (3524, 3548, 3596, respectively, Costar) a day before compound treatment. Titrated compounds were incubated with cells for 5 hours following trypsinization and resuspension in DMEM media, transferred into 96-well plates (353910, Falcon) and analyzed by flow cytometer (guava easyCyte HT, Millipore). Signal from minimal 3000 events per well was acquired and the eGFP and mCherry florescence were monitored. Data was analyzed using FlowJo® (FlowJo, LLC). Forward and side scatter outliers, frequently associated with cell debris, were removed leaving >90% of total cells, followed by removal of eGFP and mCherry signal outliers, leaving 88-90% of total cells creating the set used for quantification. The eGFP protein abundance relative to mCherry was then quantified as a ten-fold amplified ratio for each individual cell using the formula: 10×eGFP/mCherry. The median of the ratio was then calculated per set, normalized to the median of the DMSO ratio.
The assay described in Example 16 was repeated, using compounds 3-8 and the control (“negative compound” (G)).

For experiment [4], the target named is T3, PBRM1 PB5. Briefly: Imaging based PBRM1 PB5 GFP/RFP degradation assay. The note with it: after 3 h of incubation; for degradation of PBRM1 PB5: FIG. 3H-3J. Here is the method: Cells stably expressing PBRM1 PB5 in Example 16, were seeded at 30-50% confluency in 384 well plates (3764, Corning) with 50 μL FluoroBrite DMEM media (Gibco, A18967) containing 10% FBS per well a day before compound treatment. […] The assay plate was imaged immediately using Acumen eX3/HCl (TTPLabtech) High Content Imager with 488 nm and 561 nm lasers in […] grid per well format. The resulting images were analyzed using CellProfiler (Carpenter et al., Genome Biol. 7R100 PIMD 17076895 (2006)). A series of image analysis steps (‘image analysis pipeline’) was constructed.
The CellProfiler pipeline steps were as follows. First, the red and green channels were aligned and cropped to target the middle of each well (to avoid analysis of heavily clumped cells at the edges), and a background illumination function was calculated for both red and green channels of each well individually and subtracted to correct for illumination variations across the 384-well plate from various sources of error. An additional step was then applied to the green channel to suppress the analysis of large auto fluorescent artifacts and enhance the analysis of cell specific fluorescence by way of selecting for objects under a given size, 30 A.U., and with a given shape, speckles. Cells that were mCherry-positive were then identified in the red channel filtering for objects between 8-60 pixels in diameter and using intensity to distinguish between clumped objects. The green channel was then segmented into GFP positive and negative areas and objects were labeled as GFP positive if at least 40% of it overlapped with a GFP positive area. The fraction of GFP-positive cells/mCherry-positive cells (GFP/mCherry ratio) in each well was then calculated, and the green and red images were rescaled for visualization. The GFP/mCherry ratio was normalized to DMSO visualized in GraphPad Prism 7.

As for `Nc1nnc(-c2ccccc2O)cc1N1CCN(C(=O)CCOCCNc2cccc3c2CN(C2CCC(=O)NC2=O)C3=O)CC1` (centres unmarked) [Compound 1, 3-(4-((2-(3-(4-(3-amino-6-(2-hydroxyphenyl)pyridazin-4-yl)piperazin-1-yl)-3-oxopropoxy)ethyl)amino)-1-oxoisoindolin-2-yl)piperidine-2,6-dione], the IC50 in experiment [1] came to 30500 nM. Further, the “degradation of PBRM1 (Western blot, FIG. 4)” value in experiment [2] is on record as “degradation of PBRM1”.

`Nc1nnc(-c2ccccc2O)cc1N1CCN(C(=O)CCOCCOCCNc2cccc3c2CN(C2CCC(=O)NC2=O)C3=O)CC1` (centres unmarked) [Compound 2, 3-(4-((2-(2-(3-(4-(3-amino-6-(2-hydroxyphenyl)pyridazin-4-yl)piperazin-1-yl)-3-oxopropoxy)ethoxy)ethyl)amino)-1-oxoisoindolin-2-yl)piperidine-2,6-dione]: the IC50 in experiment [1] was determined as 20900 nM. For `Nc1nnc(-c2ccccc2O)cc1N1CCN(C(=O)CCCCCCCCOc2cccc3c2C(=O)N(C2CCC(=O)NC2=O)C3=O)CC1` (centres unmarked) [Compound 3, 4-((9-(4-(3-amino-6-(2-hydroxyphenyl)pyridazin-4-yl)piperazin-1-yl)-9-oxononyl)oxy)-2-(2,6-dioxopiperidin-3-yl)isoindoline-1,3-dione], in experiment [1], the IC50 is 162 nM. The compound also came in with a DC50 in experiment [3] of 2.86 nM. `Nc1nnc(-c2ccccc2O)cc1N1CCN(C(=O)COc2cccc3c2C(=O)N(C2CCC(=O)NC2=O)C3=O)CC1` (centres unmarked) [Compound 4, 4-(2-(4-(3-amino-6-(2-hydroxyphenyl)pyridazin-4-yl)piperazin-1-yl)-2-oxoethoxy)-2-(2,6-dioxopiperidin-3-yl)isoindoline-1,3-dione] registered a DC50 in experiment [3] of 21.8 nM. Compound `Nc1nnc(-c2ccccc2O)cc1N1CCN(C(=O)CCCCCCCCCCOc2cccc3c2C(=O)N(C2CCC(=O)NC2=O)C3=O)CC1` (centres unmarked) [Compound 5, 4-((11-(4-(3-amino-6-(2-hydroxyphenyl)pyridazin-4-yl)piperazin-1-yl)-11-oxoundecyl)oxy)-2-(2,6-dioxopiperidin-3-yl)isoindoline-1,3-dione] displayed a DC50 in experiment [3] of 3.64 nM. In experiment [3], `Nc1nnc(-c2ccccc2O)cc1N1CCN(C(=O)CCCCCCCOc2cccc3c2C(=O)N(C2CCC(=O)NC2=O)C3=O)CC1` (centres unmarked) [Compound 6, 4-((8-(4-(3-amino-6-(2-hydroxyphenyl)pyridazin-4-yl)piperazin-1-yl)-8-oxooctyl)oxy)-2-(2,6-dioxopiperidin-3-yl)isoindoline-1,3-dione] had a DC50 of 6.42 nM.

For `Nc1nnc(-c2ccccc2O)cc1N1CCN(C(=O)CCCCCCOc2cccc3c2C(=O)N(C2CCC(=O)NC2=O)C3=O)CC1` (centres unmarked) [Compound 7, 4-((7-(4-(3-amino-6-(2-hydroxyphenyl)pyridazin-4-yl)piperazin-1-yl)-7-oxoheptyl)oxy)-2-(2,6-dioxopiperidin-3-yl)isoindoline-1,3-dione], it took 6.35 nM to reach half-maximal degradation in experiment [3] (DC50).

With `Nc1nnc(-c2ccccc2O)cc1N1CCN(C(=O)CCCCCCCCCOc2cccc3c2C(=O)N(C2CCC(=O)NC2=O)C3=O)CC1` (centres unmarked) [Compound 8, 4-((10-(4-(3-amino-6-(2-hydroxyphenyl)pyridazin-4-yl)piperazin-1-yl)-10-oxodecyl)oxy)-2-(2,6-dioxopiperidin-3-yl)isoindoline-1,3-dione], in experiment [3], the DC50 came out at 3.9 nM. With `Cc1ncsc1-c1ccc([C@H](C)NC(=O)[C@@H]2C[C@@H](O)CN2C(=O)[C@@H](NC(=O)CCCCCCCCN2CCN(c3cc(-c4ccccc4O)nnc3N)CC2)C(C)(C)C)cc1` [Compound 11, (2S,4R)-1-((S)-2-(9-(4-(3-amino-6-(2-hydroxyphenyl)pyridazin-4-yl)piperazin-1-yl)nonanamido)-3,3-dimethylbutanoyl)-4-hydroxy-N—((S)-1-(4-(4-methylthiazol-5-yl)phenyl)ethyl)pyrrolidine-2-carboxamide], in experiment [4], the “degradation of PBRM1 PB5” value was “less effective”. Turning to `Cc1ncsc1-c1ccc([C@H](C)NC(=O)[C@@H]2C[C@@H](O)CN2C(=O)[C@@H](NC(=O)CCCCCCCC(=O)N2CCN(c3cc(-c4ccccc4O)nnc3N)CC2)C(C)(C)C)cc1` [Compound 12, (2S,4R)-1-((S)-2-(9-(4-(3-Amino-6-(2-hydroxyphenyl)pyridazin-4-yl)piperazin-1-yl)-9-oxononanamido)-3,3-dimethylbutanoyl)-4-hydroxy-N—((S)-1-(4-(4-methylthiazol-5-yl)phenyl)ethyl)pyrrolidine-2-carboxamide], the “degradation of PBRM1 PB5” value in experiment [4] is listed as “potent degradation”.

As to `Nc1nnc(-c2ccccc2O)cc1N1CCN(CCCCCCNC(=O)COc2cccc3c2C(=O)N(C2CCC(=O)NC2=O)C3=O)CC1` (centres unmarked) [Compound 13, N-(6-(4-(3-amino-6-(2-hydroxyphenyl)pyridazin-4-yl)piperazin-1-yl)hexyl)-2-((2-(2,6-dioxopiperidin-3-yl)-1,3-dioxoisoindolin-4-yl)oxy)acetamide], the “degradation of PBRM1 PB5” value in experiment [4] is “potent degradation”. In experiment [4] (high compound concentration), the hook effect entry is reported as “hook effect”.
